{
  "source": "patent US20230116647A1",
  "about": "(Bausch Health Ireland Limited, priority 2020, published 2023)",
  "origin": "cited, not measured here",
  "key": {"visceral hyperalgesia": {"tested_on": "visceral hyperalgesia", "conditions": "rat, in vivo; cited from earlier work"}, "[1]": {"tested_on": "species of Staphylococcus, Streptococcus, Enterococcus, and Enterobacteriaceae", "conditions": "cited from earlier work"}, "Hepatic Encephalopathy": {"tested_on": "Hepatic Encephalopathy", "conditions": "mouse, in vivo; cited from earlier work"}, "NASH": {"tested_on": "NASH", "conditions": "after 6 months of therapy; all P<0.05; cited from earlier work"}, "[2]": {"tested_on": "proteoglycan (PG)-induced ankylosing spondylitis", "conditions": "administered for 4 consecutive weeks; cited from earlier work"}, "[3]": {"tested_on": "Minimal Hepatic Encephalopathy", "conditions": "cited from earlier work"}},
  "data": [
    {"molecule": "CO[C@H]1/C=C/O[C@@]2(C)Oc3c(C)c(O)c4c(O)c(c5c(nc6cc(C)ccn65)c4c3C2=O)NC(=O)/C(C)=C\\C=C\\[C@H](C)[C@H](O)[C@@H](C)[C@@H](O)[C@@H](C)[C@H](OC(C)=O)[C@@H]1C", "note": "[rifaximin, Rifaximin]", "values": [
      {"measurement": "mucosal inflammation, measured by levels of IL-17, IL-6 and TNF-α", "setting": "visceral hyperalgesia", "value": "decreased"},
      {"measurement": "overall quantity of bacteria in the ileum", "setting": "visceral hyperalgesia", "value": "decreased"},
      {"measurement": "in vitro activity against bacteria", "setting": "[1]", "value": "active"},
      {"measurement": "microbiota function (endotoxin, deconjugation and formation of secondary bile acids)", "setting": "Hepatic Encephalopathy", "value": "favorably impacted"},
      {"measurement": "systemic inflammation (serum IL-1β, IL-6), intestinal barrier, microbiota composition and function", "setting": "Hepatic Encephalopathy", "value": "improved"},
      {"measurement": "homeostatic model assessment, ALT, AST, γ-glutamyl transferase, endotoxin, toll-like receptor-4, IL-6, TNF-α, CK-18, NAFLD-liver fat score", "setting": "NASH", "value": "significant reduction"},
      {"measurement": "inflammatory factors, such as TNF-α, IL-6, IL-17A, and IL-23", "setting": "[2]", "value": "down-regulation"},
      {"measurement": "severity of ankylosing spondylitis", "setting": "[2]", "value": "significantly reduced"},
      {"measurement": "responders in whom all alterations of the immune system were normalized", "setting": "[3]; human, in vivo", "value": 59, "unit": "%"},
      {"measurement": "effect on alterations of the immune system in non-responders", "setting": "[3]; non-responders", "value": "normalizes only IL-6, CCL20, and differentiation of T lymphocytes to Th22"}
    ]},
    {"molecule": "neomycin", "values": [
      {"measurement": "elevation in IL-17, IL-6, or TNF-α", "setting": "visceral hyperalgesia", "value": "did not prevent"},
      {"measurement": "visceral pain", "setting": "visceral hyperalgesia", "value": "did not decrease"}
    ]}
  ]
}
